Where two headings read alike, the source gives them in different places.
Experiments:
[1] = target: ATR kinase, in the presence of partner proteins ATRIP, CLK2 and TopBP1 (Homo sapiens (Human), UniProt Q13535); test: ATR-complex inhibition assay (radioactive-phosphate incorporation); assay type: biochemical; conditions: Ki(app); 4 nM full-length ATR, 40 nM ATRIP, 40 nM CLK2, 600 nM TopBP1; 10 μM ATP; 25° C.
Protocol: Compounds were screened for their ability to inhibit ATR kinase, in the presence of partner proteins ATRIP, CLK2 and TopBP1, using a radioactive-phosphate incorporation assay. Assays were carried out in a mixture of 50 mM Tris/HCl (pH 7.5), 10 mM MgCl2 and 1 mM DTT. Final substrate concentrations were 10 μM [g-33P]ATP (3.5 μCi 33P ATP/nmol ATP, Perkin Elmer, Massachusetts, USA) and 800 μM target peptide ([…]) (SEQ ID NO: 1); Isca Biochemicals, Cambridgeshire, UK).
Assays were carried out at 25° C. in the presence of 4 nM full-length ATR, 40 nM full-length ATRIP, 40 nM full-length CLK2 and 600 nM TopBP1 (A891-S1105). An enzyme stock buffer solution was prepared containing all of the reagents listed above, with the exception of target peptide, ATP and the test compound of interest. This enzyme stock was pre-incubated for 30 minutes at 25° C. 8.5 μL of the enzyme stock solution was placed in a 96-well plate followed by addition of 5 μl of target peptide and 2 μL of DMSO stock containing serial dilutions of the test compound (typically starting from a final concentration of 1.5 μM with 2.5-fold serial dilutions) in duplicate (final DMSO concentration 7%). The plate was pre-incubated for 10 minutes at 25° C. and the reaction initiated by addition of 15 μL [g-33P]ATP (final concentration 10 μM).
The reaction was stopped after […] by the addition of 30 μL 0.3 M phosphoric acid containing 2 mM ATP. A phosphocellulose filter 96-well plate (Multiscreen HTS MAPHNOB50, Merck-Millipore, Massachusetts, USA) was pretreated with 100 μL 0.1 M phosphoric acid prior to the addition of 45 μL of the stopped assay mixture. The plate was washed with 5×200 μL 0.1 M phosphoric acid. After drying, 50 μL Optiphase ‘SuperMix’ liquid scintillation cocktail (Perkin Elmer, Massachusetts, USA) was added to the well prior to scintillation counting (Wallac 1450 Microbeta Liquid Scintillation Counter, Perkin Elmer, Massachusetts, USA).
After removing mean background values for all of the data points, Ki(app) data were calculated from non-linear regression analysis of the initial rate data using the Prism software package (GraphPad Prism version 6.0c for Macintosh, GraphPad Software Inc., San Diego, USA).
Compounds with a Cisplatin sensitization value of <0.02 μM are marked with “+++.” Compounds with a Ki value >0.02 μM but <0.2 μM are marked with “++.” Compounds with a Ki value >0.2 μM but <5 μM are marked with “+.”

[2] = target: ATR kinase (full-length ATR) (Homo sapiens (Human), UniProt Q13535); test: ATR inhibition assay (radioactive-phosphate incorporation); assay type: biochemical
ATR kinase (full-length ATR), sequence (Q13535 whole entry): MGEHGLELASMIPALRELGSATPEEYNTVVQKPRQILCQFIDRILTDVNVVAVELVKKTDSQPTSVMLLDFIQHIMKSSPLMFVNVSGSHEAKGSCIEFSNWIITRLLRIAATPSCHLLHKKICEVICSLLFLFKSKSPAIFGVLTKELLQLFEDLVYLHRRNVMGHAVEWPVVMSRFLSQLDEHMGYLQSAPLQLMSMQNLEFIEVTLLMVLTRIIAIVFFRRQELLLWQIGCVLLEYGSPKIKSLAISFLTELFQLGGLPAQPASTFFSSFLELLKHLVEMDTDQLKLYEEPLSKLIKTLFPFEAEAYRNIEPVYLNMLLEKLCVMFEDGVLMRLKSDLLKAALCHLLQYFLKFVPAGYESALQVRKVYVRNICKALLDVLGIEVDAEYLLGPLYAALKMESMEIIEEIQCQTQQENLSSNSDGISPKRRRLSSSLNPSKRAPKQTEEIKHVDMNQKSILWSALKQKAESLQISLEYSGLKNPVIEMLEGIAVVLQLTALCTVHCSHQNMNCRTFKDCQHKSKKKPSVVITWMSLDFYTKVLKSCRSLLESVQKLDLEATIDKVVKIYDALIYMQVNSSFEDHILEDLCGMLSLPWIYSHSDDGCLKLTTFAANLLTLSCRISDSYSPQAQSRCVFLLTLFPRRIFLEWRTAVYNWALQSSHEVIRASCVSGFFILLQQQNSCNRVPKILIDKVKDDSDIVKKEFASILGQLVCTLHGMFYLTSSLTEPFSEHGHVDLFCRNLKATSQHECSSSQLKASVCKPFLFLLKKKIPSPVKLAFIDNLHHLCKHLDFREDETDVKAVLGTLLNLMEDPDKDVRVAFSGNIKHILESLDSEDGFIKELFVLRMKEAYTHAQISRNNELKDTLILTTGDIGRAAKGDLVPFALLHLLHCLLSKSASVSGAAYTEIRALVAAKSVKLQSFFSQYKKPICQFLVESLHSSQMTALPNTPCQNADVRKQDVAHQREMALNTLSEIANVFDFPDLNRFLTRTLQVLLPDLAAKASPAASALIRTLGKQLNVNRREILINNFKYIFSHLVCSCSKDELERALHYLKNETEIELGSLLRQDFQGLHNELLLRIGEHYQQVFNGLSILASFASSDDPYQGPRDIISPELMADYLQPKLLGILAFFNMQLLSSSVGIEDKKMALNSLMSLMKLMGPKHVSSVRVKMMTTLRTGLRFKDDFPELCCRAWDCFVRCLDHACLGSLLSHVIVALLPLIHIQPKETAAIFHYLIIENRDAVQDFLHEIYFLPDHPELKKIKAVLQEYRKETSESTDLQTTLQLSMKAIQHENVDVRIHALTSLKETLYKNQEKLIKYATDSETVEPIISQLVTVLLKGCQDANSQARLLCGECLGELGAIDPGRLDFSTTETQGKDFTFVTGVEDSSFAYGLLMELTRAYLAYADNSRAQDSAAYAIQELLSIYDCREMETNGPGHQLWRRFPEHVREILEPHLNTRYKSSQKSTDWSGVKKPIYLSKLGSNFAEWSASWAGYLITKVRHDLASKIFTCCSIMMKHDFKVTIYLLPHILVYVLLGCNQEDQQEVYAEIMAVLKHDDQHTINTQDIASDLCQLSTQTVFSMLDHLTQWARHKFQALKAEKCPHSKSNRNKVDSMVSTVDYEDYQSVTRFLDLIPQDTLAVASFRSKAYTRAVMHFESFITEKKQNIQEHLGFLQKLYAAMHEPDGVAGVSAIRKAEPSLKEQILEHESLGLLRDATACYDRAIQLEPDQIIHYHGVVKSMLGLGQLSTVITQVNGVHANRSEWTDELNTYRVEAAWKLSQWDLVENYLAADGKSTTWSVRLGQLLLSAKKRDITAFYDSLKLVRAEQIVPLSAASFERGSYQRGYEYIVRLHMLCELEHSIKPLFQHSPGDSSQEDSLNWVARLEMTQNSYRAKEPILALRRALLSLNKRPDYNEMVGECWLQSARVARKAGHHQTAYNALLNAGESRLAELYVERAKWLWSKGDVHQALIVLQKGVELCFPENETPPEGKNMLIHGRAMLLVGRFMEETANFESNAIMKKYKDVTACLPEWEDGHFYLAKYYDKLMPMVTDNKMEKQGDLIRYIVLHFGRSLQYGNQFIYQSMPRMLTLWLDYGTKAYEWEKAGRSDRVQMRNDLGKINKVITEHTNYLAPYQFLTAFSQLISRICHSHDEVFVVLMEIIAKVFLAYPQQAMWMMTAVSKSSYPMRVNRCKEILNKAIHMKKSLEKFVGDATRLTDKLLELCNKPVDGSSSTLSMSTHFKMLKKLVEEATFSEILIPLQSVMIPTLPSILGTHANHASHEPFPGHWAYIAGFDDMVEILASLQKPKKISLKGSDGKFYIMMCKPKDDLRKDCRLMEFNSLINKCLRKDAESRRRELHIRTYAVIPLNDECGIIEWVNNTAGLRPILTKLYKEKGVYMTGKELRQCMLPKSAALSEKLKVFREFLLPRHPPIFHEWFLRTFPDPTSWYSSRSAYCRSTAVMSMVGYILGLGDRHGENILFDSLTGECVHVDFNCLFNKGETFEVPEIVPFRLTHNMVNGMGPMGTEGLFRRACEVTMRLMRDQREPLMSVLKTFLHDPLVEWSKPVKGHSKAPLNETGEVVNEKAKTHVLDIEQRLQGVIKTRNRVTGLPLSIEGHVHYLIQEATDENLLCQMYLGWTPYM
Method in brief: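 Ki(app) was fitted by non-linear regression to background-corrected initial rates. Full-length ATR (5 nM) phosphorylated 800 μM peptide using 10 μM [γ-33P]ATP at 25° C in Tris/HCl pH 7.5 buffer with MgCl2, DTT and 7% DMSO. After 10-minute compound pre-incubation and 24-hour reaction, phosphocellulose filters were scintillation counted.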

[3] = Ki(app), 5 nM full-length ATR, 10 μM ATP, 25° C.

ATR kinase, in the presence of partner proteins ATRIP, CLK2 and TopBP1, sequence (Q13535 whole entry): as above
ATR kinase, in the presence of partner proteins ATRIP, CLK2 and TopBP1, sequence (Q8WXE1 whole entry partner): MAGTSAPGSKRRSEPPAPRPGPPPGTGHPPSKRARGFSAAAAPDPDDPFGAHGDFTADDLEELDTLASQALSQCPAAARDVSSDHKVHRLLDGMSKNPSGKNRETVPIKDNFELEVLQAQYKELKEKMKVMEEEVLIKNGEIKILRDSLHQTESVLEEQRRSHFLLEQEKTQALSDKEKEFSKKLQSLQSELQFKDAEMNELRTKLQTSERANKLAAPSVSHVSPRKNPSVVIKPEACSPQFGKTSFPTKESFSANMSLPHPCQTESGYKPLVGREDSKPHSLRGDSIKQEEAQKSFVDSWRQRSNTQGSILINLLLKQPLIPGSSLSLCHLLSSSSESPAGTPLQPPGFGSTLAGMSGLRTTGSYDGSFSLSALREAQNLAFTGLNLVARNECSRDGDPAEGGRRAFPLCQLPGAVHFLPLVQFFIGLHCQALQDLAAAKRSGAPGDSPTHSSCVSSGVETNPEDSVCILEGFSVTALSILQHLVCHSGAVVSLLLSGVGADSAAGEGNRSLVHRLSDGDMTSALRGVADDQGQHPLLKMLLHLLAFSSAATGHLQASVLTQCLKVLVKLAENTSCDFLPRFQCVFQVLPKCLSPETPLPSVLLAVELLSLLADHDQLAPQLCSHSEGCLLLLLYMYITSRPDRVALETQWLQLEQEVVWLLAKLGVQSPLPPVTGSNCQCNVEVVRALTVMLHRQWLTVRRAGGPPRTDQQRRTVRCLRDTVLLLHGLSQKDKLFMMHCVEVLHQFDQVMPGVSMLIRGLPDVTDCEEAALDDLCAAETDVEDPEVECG

Ki [1] [nM] | Ki [2, 3] [nM] | Ki [2] [nM] | Structure (SMILES)
< 20 | 10 to 1000 | – | CN1CCN(C(=O)c2ccc(-c3ccncc3NC(=O)c3c(N)nn4cc(F)cnc34)cc2)CC1 [I-C-25, 2-amino-6-fluoro-N-(4-(4-(4-methylpiperazine-1-carbonyl)phenyl)pyridin-3-yl)pyrazolo[1,5-a]pyrimidine-3-carboxamide]
< 20 | 10 to 1000 | – | Cc1nnccc1-c1ccncc1NC(=O)c1c(N)nn2cc(F)cnc12 [I-C-31, 2-amino-6-fluoro-N-(4-(3-methylpyridazin-4-yl)pyridin-3-yl)pyrazolo[1,5-a]pyrimidine-3-carboxamide]
< 20 | 10 to 1000 | – | CN1CCN(C(=O)c2ccc(-c3c(F)cncc3NC(=O)c3c(N)nn4cc(F)cnc34)cc2)CC1 [I-C-43, 2-amino-6-fluoro-N-(5-fluoro-4-(4-(4-methylpiperazine-1-carbonyl)phenyl)pyridin-3-yl)pyrazolo[1,5-a]pyrimidine-3-carboxamide]
< 20 | 10 to 1000 | – | Cn1cncc1-c1c(F)cncc1NC(=O)c1c(N)nn2cc(F)cnc12 [I-C-79, 2-amino-6-fluoro-N-(5-fluoro-4-(1-methyl-1H-imidazol-5-yl)pyridin-3-yl)pyrazolo[1,5-a]pyrimidine-3-carboxamide]
< 20 | 10 to 1000 | – | CN1CCN(C(=O)C2CCN(c3c(F)cncc3NC(=O)c3c(N)nn4cc(F)cnc34)CC2)CC1 [I-G-4, 2-amino-6-fluoro-N-(5-fluoro-4-(4-(4-methylpiperazine-1-carbonyl)piperidin-1-yl)pyridin-3-yl)pyrazolo[1,5-a]pyrimidine-3-carboxamide]
< 20 | – | 10 to 1000 | Nc1nn2cc(F)cnc2c1C(=O)Nc1cncc(F)c1N1CCC(C(=O)N2CCN3CCC2CC3)CC1 [I-G-7, N-(4-(4-(1,4-diazabicyclo[3.2.2]nonane-4-carbonyl)piperidin-1-yl)-5-fluoropyridin-3-yl)-2-amino-6-fluoropyrazolo[1,5-a]pyrimidine-3-carboxamide]
< 20 | 10 to 1000 | – | Nc1nn2cc(F)cnc2c1C(=O)Nc1cncc(F)c1N1CCC(C(=O)N2CCNCC2)CC1 [I-G-12, 2-amino-6-fluoro-N-(5-fluoro-4-(4-(piperazine-1-carbonyl)piperidin-1-yl)pyridin-3-yl)pyrazolo[1,5-a]pyrimidine-3-carboxamide]
– | 10 to 1000 | – | Nc1nn2cc(Cl)cnc2c1C(=O)Nc1cnccc1OC1CCNCC1 [I-O-80, 2-amino-6-chloro-N-(4-(piperidin-4-yloxy)pyridin-3-yl)pyrazolo[1,5-a]pyrimidine-3-carboxamide]
– | 10 to 1000 | – | Nc1nn2cc(F)cnc2c1C(=O)Nc1cnccc1O[C@H]1CCCNC1 [I-O-85, (S)-2-amino-6-fluoro-N-(4-(piperidin-3-yloxy)pyridin-3-yl)pyrazolo[1,5-a]pyrimidine-3-carboxamide]
– | 10 to 1000 | – | CN1CCC(Oc2c(F)cncc2NC(=O)c2c(N)nn3cc(F)cnc23)CC1 [I-O-89, 2-amino-6-fluoro-N-(5-fluoro-4-((1-methylpiperidin-4-yl)oxy)pyridin-3-yl)pyrazolo[1,5-a]pyrimidine-3-carboxamide]
– | 10 to 1000 | – | CNc1cc(OC)c(NC(=O)c2c(N)nn3cc(F)cnc23)cn1 [I-O-90, 2-amino-6-fluoro-N-(4-methoxy-6-(methylamino)pyridin-3-yl)pyrazolo[1,5-a]pyrimidine-3-carboxamide]
– | 10 to 1000 | – | Nc1nn2cc(F)cnc2c1C(=O)Nc1cncc(F)c1OC1CCN(C2COC2)CC1 [I-O-91, 2-amino-6-fluoro-N-(5-fluoro-4-((1-(oxetan-3-yl)piperidin-4-yl)oxy)pyridin-3-yl)pyrazolo[1,5-a]pyrimidine-3-carboxamide]
– | 10 to 1000 | – | Nc1nn2cc(F)cnc2c1C(=O)Nc1cnccc1OC1COC1 [I-O-92, 2-amino-6-fluoro-N-(4-(oxetan-3-yloxy)pyridin-3-yl)pyrazolo[1,5-a]pyrimidine-3-carboxamide]

The next lines start with the compound.

Structure (SMILES) | Ki [1] [nM] | Ki [2, 3] [nM] | Ki [2] [nM]
Nc1nn2cc(Cl)cnc2c1C(=O)Nc1cnccc1Oc1cccnc1 [I-O-70, 2-amino-6-chloro-N-(4-(pyridin-3-yloxy)pyridin-3-yl)pyrazolo[1,5-a]pyrimidine-3-carboxamide] | – | 10 to 1000 | –
CN(C)CCOc1cc(C(F)(F)F)ncc1NC(=O)c1c(N)nn2cc(Cl)cnc12 [I-O-71, 2-amino-6-chloro-N-(4-(2-(dimethylamino)ethoxy)-6-(trifluoromethyl)pyridin-3-yl)pyrazolo[1,5-a]pyrimidine-3-carboxamide] | – | 10 to 1000 | –
Nc1nn2cc(Cl)cnc2c1C(=O)Nc1cnccc1OC1CC2(CNC2)C1 [I-O-72, N-(4-(2-azaspiro[3.3]heptan-6-yloxy)pyridin-3-yl)-2-amino-6-chloropyrazolo[1,5-a]pyrimidine-3-carboxamide] | – | 10 to 1000 | –
Nc1nn2cc(Cl)cnc2c1C(=O)Nc1cnccc1OC1CNC1 [I-O-73, 2-amino-N-(4-(azetidin-3-yloxy)pyridin-3-yl)-6-chloropyrazolo[1,5-a]pyrimidine-3-carboxamide] | – | 10 to 1000 | –
Nc1nn2cc(Cl)cnc2c1C(=O)Nc1cnccc1O[C@H]1CCCNC1 [I-O-74, (S)-2-amino-6-chloro-N-(4-(piperidin-3-yloxy)pyridin-3-yl)pyrazolo[1,5-a]pyrimidine-3-carboxamide] | – | 10 to 1000 | –
Nc1nn2cc(Cl)cnc2c1C(=O)Nc1cnccc1OC1CCCNC1 (centres unmarked) [I-O-75, 2-amino-6-chloro-N-(4-(piperidin-3-yloxy)pyridin-3-yl)pyrazolo[1,5-a]pyrimidine-3-carboxamide] | – | 10 to 1000 | –
Nc1nn2cc(Cl)cnc2c1C(=O)Nc1cnccc1O[C@H]1CCNC1 [I-O-76, (S)-2-amino-6-chloro-N-(4-(pyrrolidin-3-yloxy)pyridin-3-yl)pyrazolo[1,5-a]pyrimidine-3-carboxamide] | – | 10 to 1000 | –
Nc1nn2cc(Cl)cnc2c1C(=O)Nc1cnccc1O[C@@H]1CCNC1 [I-O-77, (R)-2-amino-6-chloro-N-(4-(pyrrolidin-3-yloxy)pyridin-3-yl)pyrazolo[1,5-a]pyrimidine-3-carboxamide] | – | 10 to 1000 | –
Nc1nn2cc(Cl)cnc2c1C(=O)Nc1cnccc1O[C@H]1C[C@]2(CCN2)C1 [I-O-78, N-(4-((4s,6r)-1-azaspiro[3.3]heptan-6-yloxy)pyridin-3-yl)-2-amino-6-chloropyrazolo[1,5-a]pyrimidine-3-carboxamide] | – | 10 to 1000 | –
Nc1nn2cc(Cl)cnc2c1C(=O)Nc1cnccc1O[C@@H]1CCCNC1 [I-O-81, (R)-2-amino-6-chloro-N-(4-(piperidin-3-yloxy)pyridin-3-yl)pyrazolo[1,5-a]pyrimidine-3-carboxamide] | – | 10 to 1000 | –
N#CCc1cnc2c(C(=O)Nc3cnccc3OC3CNC3)c(N)nn2c1 [I-O-82, 2-amino-N-(4-(azetidin-3-yloxy)pyridin-3-yl)-6-(cyanomethyl)pyrazolo[1,5-a]pyrimidine-3-carboxamide] | – | < 10 | –
N#CCc1cnc2c(C(=O)Nc3cnccc3OCCN)c(N)nn2c1 [I-O-83, 2-amino-N-(4-(2-aminoethoxy)pyridin-3-yl)-6-(cyanomethyl)pyrazolo[1,5-a]pyrimidine-3-carboxamide] | – | < 10 | –
N#CCc1cnc2c(C(=O)Nc3cnccc3OC3CCNCC3)c(N)nn2c1 [I-O-84, 2-amino-6-(cyanomethyl)-N-(4-(piperidin-4-yloxy)pyridin-3-yl)pyrazolo[1,5-a]pyrimidine-3-carboxamide] | – | < 10 | –
N#CCc1cnc2c(C(=O)Nc3cnccc3O[C@@H]3CCNC3)c(N)nn2c1 [I-O-87, (R)-2-amino-6-(cyanomethyl)-N-(4-(pyrrolidin-3-yloxy)pyridin-3-yl)pyrazolo[1,5-a]pyrimidine-3-carboxamide] | – | 10 to 1000 | –
CC(C)(C)Oc1ccncc1NC(=O)c1c(N)nn2cc(F)cnc12 [I-O-88, 2-amino-N-(4-(tert-butoxy)pyridin-3-yl)-6-fluoropyrazolo[1,5-a]pyrimidine-3-carboxamide] | – | 10 to 1000 | –

Reference: US10392391B2 (Vertex Pharmaceuticals Incorporated, priority 2012, dated 2019)
